What was measured:
[1] = biological target: T1, human GP IIb/IIIa receptor (Homo sapiens, UniProt P05106+P08514); assay: GPIIb/IIIa affinity assay (displacement of tritiated reference compound from immobilized receptor); assay type: binding; settings: purified human GPIIb/IIIa, 60 nM 3H-labeled reference compound, 1 hour at room temperature
T1 construct: human GPIIb/IIIa purified from human platelets was immobilized on a 96-well solid plate; purchased Enzyme Research Laboratories Inc. (South Bend, Ind.); host or cells: human platelets (natural source, detergent-solubilised)
Method: Affinity assay: In the first step human GPIIb/IIIa purified from human platelets was immobilized on a 96-well solid plate. After 48 hours the plates were washed and the unspecific binding sites were blocked with Roti®-Block. 2. In the next step, the plates were simultaneously incubated with a tritium labeled known GPIIb/IIIa binder (^3H) mixed with increasing concentrations of the novel compounds (inhibitor). The higher the affinity of the inhibitor, the lower the bound fraction of the tritiated known GPIIb/IIIa binder (^3H) was. The fraction of tritiated compound (^3H), which is not displaced by inhibitor, was measured in a microplate scintillation counter.
Purified human glycoprotein IIb/IIIa (20 mM Tris-HCl, 0.1 M NaCl, 0.1% Triton X-100, 1 mM CaCl2, 0.05% NaN3, 50% Glycerol, pH 7.4) was purchased from Enzyme Research Laboratories Inc. (South Bend, Ind.). The GPIIb/IIIa receptor was diluted in phosphate-buffered saline (Dulbecco's Phosphate Buffered Saline (D-PBS (+)) with calcium and magnesium, GIBCO®, Invitrogen) with 0.01% bovine serum albumin (albumin from bovine serum—lyophilized powder, 96%, Sigma).
The GPIIb/IIIa receptor was immobilized 48 hours at least (100 μL per well, 48 to maximum 96 hours) on a 96-well solid plate (Immuno Plate MaxiSorp™, Nunc, Roskilde, Denmark) at 277 K to 280 K and at a concentration of 0.1 μg per well to 1 μg per well. As negative control one row of the plate (n=8) was incubated just with 2% bovine serum albumin (200 μL per well, albumin from bovine serum—lyophilized powder, ≧96%, Sigma, diluted in D-PBS (+)).
After washing three times with the wash buffer (230 μL per well, Dulbecco's Phosphate Buffered Saline (D-PBS (−)) contains no calcium or magnesium, GIBCO®, Invitrogen) residual exposed plastic and unspecific binding sites were blocked by incubating the plate with a special blocking solution (200 μL per well, Roti®-Block, Car Roth GmbH Co KG, Karlsruhe) containing 2% bovine serum albumin (Albumin from bovine serum—lyophilized powder, ≧96%, Sigma) 1 hour at room temperature.
After washing three times with the wash buffer 50 μL of tritiated reference compound (60 nM, ^3H-labeled compound) and 50 μL of novel compound (inhibitor) were simultaneously added to each well and incubated for 1 hour at room temperature. Several concentrations of each novel inhibitor (0.1, 1, 2, 5, 10, 20 50, 100, 200, 500, 1000, 2000, 5000, 10000 and 20000 nM) were investigated. At each concentration of inhibitor a fourfold determination was performed.
The maximum value of tritiated reference compound was determined without addition of inhibitor (n=8). To exclude unspecific binding of ^3H— reference compound wells without glycoprotein receptors were used as negative controls (n=12, identically treated just without GPIIb/IIIa receptors).
After one hour the plate was washed three times with phosphate-buffered saline (200 μL per well, Dulbecco's Phosphate Buffered Saline (D-PBS (+)), GIBCO®, Invitrogen). Following 140 μL of liquid scintillation cocktail (MicroScint™ 40 aqueous, Perkin Elmer) was added to each well. After 15 min at room temperature the plates were measured at the microplate scintillation counter (TopCount NXT v2.13, Perkin Elmer, Packard Instrument Company).
In the first step human glycoprotein IIb/IIIa, which is purified from human platelets, was immobilized on a 96-well solid plate. After 48 hours at least the plates were washed and the unspecific binding sites were blocked with Roti®-Block. In the next step, the plates were simultaneously incubated with a tritium labeled reference compound and the novel small molecule compound (inhibitor). The higher the affinity of the inhibitor, the smaller is the bound fraction of reference compound. The fraction of tritiated reference compound, which is not displaced by inhibitor, was measured at a microplate scintillation counter. The higher the affinity of the inhibitor, the smaller is the bound fraction of tritium-labeled reference compound. […]

[2] = tested on: human activated platelets; assay: Binding of investigated compounds to human activated platelets (ICP-MS of Gd in pellet and supernatant); assay type: cell-based; settings: ADP-activated platelet-rich plasma, 20 minutes
Method: For each experiment fresh blood was taken from a volunteer using 10 mL citrate-tubes (Sarstedt S-Monovette 02.1067.001, 10 mL, Citrate 3.13%). The 10 mL citrate-tubes were carefully inverted 10 times to mix blood and anticoagulant. The tubes were stored in an incubator at a temperature of 37° C. until centrifugation (Heraeus miniTherm CTT with integrated rotation- and turning device, turning speed: 19 rotations per minute, Heraeus Instruments GmbH, Hanau/Germany).
For plasma preparation tube centrifugation was carried out for 15 minutes at 1811 g at room temperature (Eppendorf, Centrifuge 5810R). Blood was centrifuged 15 minutes at 201 g at room temperature to produce platelet-rich plasma. The tubes were stored for 30 min at room temperature to get a better separation. The separated platelet-rich plasma was finally centrifuged for further 3 min at 453 g to remove the remaining erythrocytes. The platelet-rich plasma was activated using a final concentration of 5 μM Adenosindiphosphate (ADP, Sigma). The activated platelet-rich plasma was incubated 20 minutes with different concentrations of gadolinium-labeled compound and subsequently was centrifuged 3 minutes at 1360 g. 20 μL of incubation solution was taken to determine the concentration (n=3). […] The gadolinium concentration of supernatant and pellet was determined using an inductively coupled plasma mass spectrometry (ICP-MS Agilent 7500a).
The results for incubation concentration of 1 μM gadolinium-labeled compound are summarized in table 3 (in comparison to Gadovist® standard dose: 100 μmol Gd/kg body weight).

[3] = incubation concentration 1 μM molecule, pellet was not washed

T1 sequence (P08514 32-887 limits assumed): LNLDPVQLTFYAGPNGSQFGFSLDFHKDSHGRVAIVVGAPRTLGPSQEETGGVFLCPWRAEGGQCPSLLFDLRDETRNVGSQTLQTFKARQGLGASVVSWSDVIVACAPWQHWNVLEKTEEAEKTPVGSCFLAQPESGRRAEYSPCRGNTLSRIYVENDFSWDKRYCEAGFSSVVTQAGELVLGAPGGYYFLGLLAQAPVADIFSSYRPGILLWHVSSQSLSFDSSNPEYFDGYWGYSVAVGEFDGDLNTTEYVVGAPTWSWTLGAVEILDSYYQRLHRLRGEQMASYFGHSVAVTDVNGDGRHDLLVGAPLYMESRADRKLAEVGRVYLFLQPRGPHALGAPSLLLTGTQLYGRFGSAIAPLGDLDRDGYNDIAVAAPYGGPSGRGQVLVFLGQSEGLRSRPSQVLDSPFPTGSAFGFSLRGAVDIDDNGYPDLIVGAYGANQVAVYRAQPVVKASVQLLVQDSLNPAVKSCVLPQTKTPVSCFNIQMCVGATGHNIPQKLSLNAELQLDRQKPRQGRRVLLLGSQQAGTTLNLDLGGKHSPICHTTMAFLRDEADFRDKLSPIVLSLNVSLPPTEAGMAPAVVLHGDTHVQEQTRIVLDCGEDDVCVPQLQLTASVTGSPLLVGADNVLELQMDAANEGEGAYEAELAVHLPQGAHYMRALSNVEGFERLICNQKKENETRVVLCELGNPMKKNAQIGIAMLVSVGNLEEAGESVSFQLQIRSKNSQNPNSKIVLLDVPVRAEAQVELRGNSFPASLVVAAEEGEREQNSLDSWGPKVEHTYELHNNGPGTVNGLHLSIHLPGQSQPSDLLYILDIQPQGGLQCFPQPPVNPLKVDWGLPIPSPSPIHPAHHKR
T1 sequence (P08514 891-1039 partner limits assumed): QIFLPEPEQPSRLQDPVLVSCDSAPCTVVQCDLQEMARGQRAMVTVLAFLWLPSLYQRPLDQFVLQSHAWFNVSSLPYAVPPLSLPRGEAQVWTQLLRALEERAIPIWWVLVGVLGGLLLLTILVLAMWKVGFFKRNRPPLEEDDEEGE
T1 sequence (P05106 27-788): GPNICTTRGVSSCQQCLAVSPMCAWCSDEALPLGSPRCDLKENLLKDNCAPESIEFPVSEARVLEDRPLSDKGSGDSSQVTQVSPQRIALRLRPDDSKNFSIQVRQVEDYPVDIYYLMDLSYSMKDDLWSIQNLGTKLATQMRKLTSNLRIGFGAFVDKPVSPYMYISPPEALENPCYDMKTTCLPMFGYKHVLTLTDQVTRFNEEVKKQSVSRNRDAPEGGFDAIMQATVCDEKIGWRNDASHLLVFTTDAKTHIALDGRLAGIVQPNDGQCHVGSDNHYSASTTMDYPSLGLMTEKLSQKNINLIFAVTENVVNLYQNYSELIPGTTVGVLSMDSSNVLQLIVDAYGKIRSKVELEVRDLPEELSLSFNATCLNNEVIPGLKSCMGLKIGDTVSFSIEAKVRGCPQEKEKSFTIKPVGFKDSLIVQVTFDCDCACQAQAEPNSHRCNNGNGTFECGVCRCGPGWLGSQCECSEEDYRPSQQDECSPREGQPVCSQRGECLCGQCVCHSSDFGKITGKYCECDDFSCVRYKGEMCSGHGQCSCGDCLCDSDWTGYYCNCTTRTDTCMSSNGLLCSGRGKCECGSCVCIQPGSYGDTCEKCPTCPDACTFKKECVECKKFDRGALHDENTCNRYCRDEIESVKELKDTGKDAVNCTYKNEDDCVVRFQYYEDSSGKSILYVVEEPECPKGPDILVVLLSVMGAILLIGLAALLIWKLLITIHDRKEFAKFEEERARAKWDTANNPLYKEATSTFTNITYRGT

SMILES: C[C@@H](C(=O)NCC(=O)OCCC#Cc1cncc([C@H](CC(=O)O)NC(=O)[C@@H]2CCCN(C(=O)CCC3CCNCC3)C2)c1)N1CCN(CC(=O)O)CCN(CC(=O)O)CCN(CC(=O)O)CC1 [Example 1, Gadolinium 2,2′,2″-(10-{(2S)-1-[(2-{[4-(5-{(1S)-2-carboxy-1-[({(3R)-1-[3-(piperidin-4-yl)-propanoyl]piperidin-3-yl}carbonyl)amino]ethyl}pyridin-3-yl)but-3-yn-1-yl]oxy}-2-oxo-ethyl)amino]-1-oxopropan-2-yl}-1,4,7,10-tetraazacyclododecane-1,4,7-triyl)triacetate]
- IC50 [1]: 0.029 µM

SMILES: C[C@@H](C(=O)NCC(=O)NCCC#Cc1cncc([C@H](CC(=O)O)NC(=O)[C@@H]2CCCN(C(=O)CCC3CCNCC3)C2)c1)N1CCN(CC(=O)O)CCN(CC(=O)O)CCN(CC(=O)O)CC1 [Example 2, Gadolinium 2,2′,2″-(10-{(2S)-1-[(2-{[4-(5-{(1S)-2-carboxy-1-[({(3R)-1-[3-(piperidin-4-yl)-propanoyl]piperidin-3-yl}carbonyl)amino]ethyl}pyridin-3-yl)but-3-yn-1-yl]amino}-2-oxo-ethyl)amino]-1-oxopropan-2-yl}-1,4,7,10-tetraazacyclododecane-1,4,7-triyl)triacetate]
- IC50 [1]: 0.024 µM
- Concentration within platelet pellet [2, 3]: 8.1 ± 0.6 μM Gd

SMILES: C[C@@H](C(=O)NCC(=O)NCCCCCCc1ccc(C#Cc2cncc([C@H](CC(=O)O)NC(=O)[C@@H]3CCCN(C(=O)CCC4CCNCC4)C3)c2)cc1)N1CCN(CC(=O)O)CCN(CC(=O)O)CCN(CC(=O)O)CC1 [Example 3, Gadolinium 2,2′,2″-{10-[(2S)-1-({2-[(6-{4-[(5-{(1S)-2-carboxy-1-[({(3R)-1-[3-(piperidin-4-yl)propanoyl]piperidin-3-yl}carbonyl)amino]ethyl}pyridin-3-yl)ethynyl]phenyl}hexyl)-amino]-2-oxoethyl}amino)-1-oxopropan-2-yl]-1,4,7,10-tetraazacyclododecane-1,4,7-triyl}triacetate]
- IC50 [1]: 0.013 µM
- Concentration within platelet pellet [2, 3]: 8.3 ± 2.1 μM Gd

SMILES: C[C@@H](C(=O)NCC(=O)NCCCCCCc1ccc(CCc2cncc([C@H](CC(=O)O)NC(=O)[C@@H]3CCCN(C(=O)CCC4CCNCC4)C3)c2)cc1)N1CCN(CC(=O)O)CCN(CC(=O)O)CCN(CC(=O)O)CC1 [Example 4, Gadolinium 2,2′,2″-{10-[(2S)-1-({2-[(6-{4-[(5-{(1S)-2-carboxy-1-[({(3R)-1-[3-(piperidin-4-yl)propanoyl]piperidin-3-yl}carbonyl)amino]ethyl}pyridin-3-yl)ethyl]phenyl}hexyl)-amino]-2-oxoethyl}amino)-1-oxopropan-2-yl]-1,4,7,10-tetraazacyclododecane-1,4,7-triyl}triacetate]
- IC50 [1]: 0.025 µM
- Concentration within platelet pellet ([2]; incubation concentration 1 μM molecule, pellet washed): 3.8 ± 0.2 μM Gd

SMILES: CC(C(=O)NCC(=O)NCC(NC(=O)CNC(=O)C(C)N1CCN(CC(=O)O)CCN(CC(=O)O)CCN(CC(=O)O)CC1)C(=O)NCC(NC(=O)C(CNC(=O)CNC(=O)C(C)N1CCN(CC(=O)O)CCN(CC(=O)O)CCN(CC(=O)O)CC1)NC(=O)CNC(=O)C(C)N1CCN(CC(=O)O)CCN(CC(=O)O)CCN(CC(=O)O)CC1)C(=O)NCCCCc1cccc(CCc2cncc([C@H](CC(=O)O)NC(=O)[C@@H]3CCCN(C(=O)CCC4CCNCC4)C3)c2)c1)N1CCN(CC(=O)O)CCN(CC(=O)O)CCN(CC(=O)O)CC1 (stereo partly drawn) [Example 9, Tetragadolinium 2,3-bis({2,3-bis[(N-{2-[4,7,10-tris(carboxylatomethyl)-1,4,7,10-tetraazacyclododecan-1-yl]propanoyl}glycyl)amino]propanoyl}amino)-N-(4-{3-[(5-{(1S)-2-carboxy-1-[({(3R)-1-[3-(piperidin-4-yl)propanoyl]piperidin-3-yl}carbonyl)amino]ethyl}pyridin-3-yl)ethyl]phenyl}butyl)propanamide]
- IC50 [1]: 0.032 µM
- Concentration within platelet pellet ([2]; incubation concentration 0.8 μM molecule, pellet washed): 21.1 ± 9.6 μM Gd

Reference: patent US20160008490A1, “METAL CHELATE COMPOUNDS FOR BINDING TO THE PLATELET SPECIFIC GLYCOPROTEIN IIB/IIIA” (BAYER PHARMA AKTIENGESELLSCHAFT, priority 2013, published 2016)
